Measured values published in patent US12454509B2, “Local anesthetics with selective-sensory nerve blockade” (Children's Medical Center Corporation, priority 2019, dated 2025).
Where “and” joins values, the source holds several entries; their conditions need not be identical. Equal values may be shown once.

Tests used:
PC12 cells = assay: Cytotoxicity in PC12 cells; assay type: cell-based, rat; details: for cytotoxicity compared with ropivacaine and bupivacaine (in words): FIG. 1 / Table 2; for IC50: Rattus norvegicus, PC-12, cytotoxicity, exposure up to 24 h
Method: (§1) C2C12 Mouse myoblasts [American Type Culture Collection (ATCC) CRL-1772] were cultured to proliferate in DMEM supplemented with 20% FBS and 100 Penicillin Streptomycin. Cell culture supplies were obtained from Invitrogen, unless otherwise noted. Cells were plated at 50,000 cells per mL in DMEM with 2% horse serum and 1% Penn Strep, and left to differentiate into myotubules for 10-14 days. During differentiation, media were exchanged every 2 to 3 days. Cell viability and proliferation were studied after exposures to drugs for up to 24 h. PC12 cells (ATCC, CRL-1721) originating from rat adrenal gland pheochromocytoma were grown in 24-well tissue culture dishes (CellBind; Corning) with F-12K (ATCC) supplemented with 12.5% horse serum (Gibco), 2.5% FBS (Gibco), and 1% Penn Strep (Sigma). For neuronal induction (PC12), cells were seeded at a relative low density of 5×10^4 cells/cm2 and 50 ng/mL NGF was added 24 h after seeding. Cell viability and proliferation were evaluated as for C2C12 cells. Experiments with PC12 cells were conducted for up to 24 hours.

hERG = hERG (Homo sapiens, UniProt Q12809); assay: Whole-cell patch clamp, hERG current in stably transfected HEK cells
Method: (§2) These experiments were designed to examine the acute effects of 4Sa (ZYK2312-1), 4Sb (ZYK2312-2), and bupivacaine on hERG and peak Nav1.5 currents recorded from stably transfected HEK cells.
(§3) Experimental Methods: Currents were measured using the whole-cell variant of the patch clamp method. Glass pipettes were pulled from borosilicate glass by a horizontal puller (Sutter Instruments, USA). Pipette tip resistance was approximately 1 to 2 MΩ when filled with internal solutions. Series resistance was compensated electronically by approximately 60-80%. Bath temperature was measured by a thermistor placed near the cell under study. An Axopatch 1-B amplifier (Axon Instruments, Foster City, CA) was used for whole-cell voltage clamping. Creation of voltage clamp pulses and data acquisition was controlled by a computer running pClamp software (ver 9.2 Axon Instruments). After rupture of the cell membrane (entering whole-cell mode), current kinetics and amplitudes were allowed to stabilize as the cell was dialyzed with internal solution and paced every 5 seconds (typically 2 to 3 minutes). Peak INa was elicited using a pulse pattern with fixed amplitudes (conditioning prepulse: −120 mV for 50 ms; depolarizing test step to −30 mV for 20 ms). hERG current was elicited with a 500 ms pulse to +10 mV followed by a 500 ms pulse to −40 mV (holding potential=[…]). Cells were perfused at each testing concentration until a steady-state was reached.
(§4) Raw data and mean±SEM are given. Data are presented as percent reduction of current amplitude. […] Each cell served as its own control. A nonlinear curve-fitting routine was utilized to fit a three-parameter Hill equation to the results using MicroCal Origin, version 6.0 software. The equation is:
(§5) [formula] where Vmax=100 and k and n are unconstrained variables.

peak Nav1.5 = peak Nav1.5 (Homo sapiens, UniProt Q14524); assay: Whole-cell patch clamp, peak Nav1.5 current in stably transfected HEK cells; details: for peak Nav1.5 current amplitude, percent reduction: individual cell (raw data); for inhibition at 1 µM: HEK293, read-out: peak Nav1.5 current amplitude, percent reduction, 1 μM, individual cell (raw data); for inhibition at 10 µM: HEK293, read-out: peak Nav1.5 current amplitude, percent reduction, 10 μM, individual cell (raw data); for inhibition at 1000 µM: HEK293, read-out: peak Nav1.5 current amplitude, percent reduction, 1000 μM, individual cell (raw data); for inhibition at 100 µM: HEK293, read-out: peak Nav1.5 current amplitude, percent reduction, 100 μM, individual cell (raw data)
Method: as §2, §3, §4, §5

C2C12 Mouse myoblasts = assay: Cytotoxicity in C2C12 myotubules; assay type: cell-based; details: C2C12 cells; for cytotoxicity compared with ropivacaine and bupivacaine (in words): FIG. 2 / Table 2; for IC50: Mus musculus, cytotoxicity, exposure up to 24 h
Method: as §1

sciatic nerve [1] = assay: Sciatic nerve block in rats: duration of motor block, weight-bearing test; assay type: in vivo; details: rat sciatic nerve injection 0.3 mL
Excerpt: (§6) Sciatic Nerve Block and Neurobehavioral Testing. Animals were cared for in compliance with protocols approved by the Children's Hospital Animal Care and Use Committee, and the Massachusetts Institute of Technology Committee on Animal Care, which conformed to guidelines of the International Association for the Study of Pain. Adult male Sprague-Dawley rats (Charles River Laboratories) weighing 320-450 g were housed in groups, in a 6 AM to 6 PM light-dark cycle. Under brief isoflurane-oxygen anesthesia, a 23G needle was introduced postero-medial to the greater trochanter, until bone was contacted, and 0.3 mL of test solution was injected over the sciatic nerve. Thermal nociception was assessed by a modified hotplate test, and motor function via a weight-bearing test. […] Motor strength was assessed with a weight-bearing test. In brief, the animal was held over a digital balance such that it could bear weight with 1 hind paw at a time. The maximum weight that it could bear was recorded. The duration of motor blockade was defined as the time for weight bearing to return halfway to normal from maximal block. The halfway point for each rat was defined as […].

sciatic nerve [2] = assay: Sciatic nerve block in rats: duration of thermal nociceptive (sensory) block, modified hotplate test; assay type: in vivo, rat; details: for Block Duration (min) Sensory: rat sciatic nerve injection 0.3 mL; for Sensory:Motor Block Ratio: rat sciatic nerve block
Excerpt: as §6

Chain of hERG (Q12809 whole entry): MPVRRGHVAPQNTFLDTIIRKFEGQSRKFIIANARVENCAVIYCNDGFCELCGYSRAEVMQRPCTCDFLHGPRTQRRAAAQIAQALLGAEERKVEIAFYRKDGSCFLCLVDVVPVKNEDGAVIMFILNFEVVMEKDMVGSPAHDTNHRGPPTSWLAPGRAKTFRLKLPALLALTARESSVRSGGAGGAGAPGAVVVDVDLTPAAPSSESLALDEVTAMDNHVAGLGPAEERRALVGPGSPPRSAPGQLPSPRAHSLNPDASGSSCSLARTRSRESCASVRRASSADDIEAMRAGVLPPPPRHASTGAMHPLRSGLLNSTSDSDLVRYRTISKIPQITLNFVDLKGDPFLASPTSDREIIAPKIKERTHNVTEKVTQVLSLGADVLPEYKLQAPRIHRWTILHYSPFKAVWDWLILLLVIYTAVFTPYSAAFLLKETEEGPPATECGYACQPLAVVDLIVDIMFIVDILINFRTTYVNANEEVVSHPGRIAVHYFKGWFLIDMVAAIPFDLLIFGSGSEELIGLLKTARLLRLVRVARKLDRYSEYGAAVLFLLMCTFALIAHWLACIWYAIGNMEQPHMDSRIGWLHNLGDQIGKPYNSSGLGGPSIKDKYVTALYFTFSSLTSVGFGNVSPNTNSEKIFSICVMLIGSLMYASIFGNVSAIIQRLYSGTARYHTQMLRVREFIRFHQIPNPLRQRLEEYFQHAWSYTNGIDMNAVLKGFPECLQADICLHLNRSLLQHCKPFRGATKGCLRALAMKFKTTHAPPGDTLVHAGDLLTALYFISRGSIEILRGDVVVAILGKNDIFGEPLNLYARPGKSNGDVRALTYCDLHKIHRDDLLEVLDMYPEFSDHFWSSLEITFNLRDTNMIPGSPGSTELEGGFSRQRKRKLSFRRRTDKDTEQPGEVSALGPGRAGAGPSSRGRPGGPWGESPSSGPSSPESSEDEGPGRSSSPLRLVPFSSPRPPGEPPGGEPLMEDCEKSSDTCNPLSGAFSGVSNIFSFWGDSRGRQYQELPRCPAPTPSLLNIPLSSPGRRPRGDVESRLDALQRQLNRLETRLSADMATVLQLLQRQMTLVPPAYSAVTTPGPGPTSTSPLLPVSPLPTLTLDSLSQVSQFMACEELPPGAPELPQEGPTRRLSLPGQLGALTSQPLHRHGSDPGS
Chain of peak Nav1.5 (Q14524 whole entry): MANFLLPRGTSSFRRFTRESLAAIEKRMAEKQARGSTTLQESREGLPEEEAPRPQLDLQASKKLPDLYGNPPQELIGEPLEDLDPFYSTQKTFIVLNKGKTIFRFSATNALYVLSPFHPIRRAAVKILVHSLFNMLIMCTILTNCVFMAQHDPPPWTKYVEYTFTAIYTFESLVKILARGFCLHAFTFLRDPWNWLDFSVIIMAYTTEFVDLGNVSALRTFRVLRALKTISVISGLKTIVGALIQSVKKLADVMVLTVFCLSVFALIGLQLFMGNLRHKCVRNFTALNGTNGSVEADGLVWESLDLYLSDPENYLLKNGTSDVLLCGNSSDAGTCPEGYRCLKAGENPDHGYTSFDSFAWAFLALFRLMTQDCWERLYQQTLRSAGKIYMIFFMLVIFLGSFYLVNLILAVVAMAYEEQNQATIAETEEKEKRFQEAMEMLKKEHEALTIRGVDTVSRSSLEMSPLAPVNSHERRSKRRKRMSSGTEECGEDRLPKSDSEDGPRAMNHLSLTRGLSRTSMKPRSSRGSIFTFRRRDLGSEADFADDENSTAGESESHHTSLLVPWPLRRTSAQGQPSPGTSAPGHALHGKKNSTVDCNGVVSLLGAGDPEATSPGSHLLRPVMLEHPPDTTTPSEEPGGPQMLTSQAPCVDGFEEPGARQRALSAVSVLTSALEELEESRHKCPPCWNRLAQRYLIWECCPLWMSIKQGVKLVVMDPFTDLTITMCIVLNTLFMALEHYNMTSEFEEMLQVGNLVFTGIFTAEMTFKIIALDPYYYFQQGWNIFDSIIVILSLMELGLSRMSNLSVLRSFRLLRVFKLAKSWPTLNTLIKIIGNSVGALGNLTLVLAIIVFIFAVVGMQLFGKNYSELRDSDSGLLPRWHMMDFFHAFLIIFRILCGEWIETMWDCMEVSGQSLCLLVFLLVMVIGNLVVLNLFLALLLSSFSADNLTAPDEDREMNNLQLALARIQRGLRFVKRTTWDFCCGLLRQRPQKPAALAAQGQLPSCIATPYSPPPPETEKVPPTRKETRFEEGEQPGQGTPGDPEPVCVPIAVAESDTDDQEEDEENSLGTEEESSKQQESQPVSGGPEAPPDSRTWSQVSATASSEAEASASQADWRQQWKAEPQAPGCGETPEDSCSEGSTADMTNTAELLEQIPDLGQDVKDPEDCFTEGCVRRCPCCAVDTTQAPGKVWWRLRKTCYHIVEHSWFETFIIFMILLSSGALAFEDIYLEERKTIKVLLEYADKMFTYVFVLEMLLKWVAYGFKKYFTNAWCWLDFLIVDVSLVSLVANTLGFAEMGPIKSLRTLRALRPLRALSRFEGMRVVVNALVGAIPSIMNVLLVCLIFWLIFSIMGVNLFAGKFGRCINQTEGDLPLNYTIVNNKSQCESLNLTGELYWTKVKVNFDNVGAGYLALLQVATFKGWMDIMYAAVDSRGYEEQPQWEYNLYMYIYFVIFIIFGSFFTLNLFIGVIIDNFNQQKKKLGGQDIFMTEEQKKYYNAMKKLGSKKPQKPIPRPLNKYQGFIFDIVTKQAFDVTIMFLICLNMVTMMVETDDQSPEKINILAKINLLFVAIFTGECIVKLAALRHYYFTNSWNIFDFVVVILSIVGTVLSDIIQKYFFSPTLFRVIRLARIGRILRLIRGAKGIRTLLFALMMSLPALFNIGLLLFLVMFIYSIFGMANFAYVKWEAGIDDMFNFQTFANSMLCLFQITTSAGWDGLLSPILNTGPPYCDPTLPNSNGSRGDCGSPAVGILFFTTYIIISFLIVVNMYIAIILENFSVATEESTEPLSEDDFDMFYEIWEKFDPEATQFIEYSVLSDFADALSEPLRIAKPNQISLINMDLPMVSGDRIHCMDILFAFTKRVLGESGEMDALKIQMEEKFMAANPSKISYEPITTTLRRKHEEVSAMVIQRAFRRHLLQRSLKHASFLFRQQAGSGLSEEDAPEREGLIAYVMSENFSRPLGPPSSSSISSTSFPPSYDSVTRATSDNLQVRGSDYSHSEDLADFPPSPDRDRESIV

Row | SMILES | cytotoxicity compared with ropivacaine and bupivacaine (in words) (PC12 cells) | IC50 (PC12 cells) [µM] | IC50 (hERG) [µM] | hERG current amplitude, percent reduction (hERG; human, 1 μM) [%] | hERG current amplitude, percent reduction, mean ± SE (hERG; human, 1 μM) [%] | hERG current amplitude, percent reduction, mean ± SE (hERG; human, 10 μM) [%] | hERG current amplitude, percent reduction, mean ± SE (hERG; human, 100 μM) [%] | hERG current amplitude, percent reduction, mean ± SE (hERG; human, 300 μM) [%] | hERG current amplitude, percent reduction, mean ± SE (hERG; human, 1000 μM) [%] | peak Nav1.5 current amplitude, percent reduction (peak Nav1.5; 1 μM) [%] | peak Nav1.5 current amplitude, percent reduction, mean ± SE (peak Nav1.5; 1 μM) [%] | peak Nav1.5 current amplitude, percent reduction (peak Nav1.5; 10 μM) [%] | peak Nav1.5 current amplitude, percent reduction, mean ± SE (peak Nav1.5; 10 μM) [%] | peak Nav1.5 current amplitude, percent reduction, mean ± SE (peak Nav1.5; 100 μM) [%] | peak Nav1.5 current amplitude, percent reduction, mean ± SE (peak Nav1.5; 300 μM) [%] | peak Nav1.5 current amplitude, percent reduction, mean ± SE (peak Nav1.5; 1000 μM) [%] | inhibition at 1 µM (peak Nav1.5) [%] | inhibition at 10 µM (peak Nav1.5) [%] | Block Duration (min) Motor (sciatic nerve [1]; dose conc 10 mM) [min] | Block Duration (min) Sensory (sciatic nerve [2]; dose conc 10 mM) [min] | other results
1 | CCC[N@+]1(CC(=O)OC)CCCC[C@H]1C(=O)Nc1c(C)cccc1C.[Br-] [Compound 4Sa, 2-((2,6-Dimethylphenyl)carbamoyl)-1-(2-methoxy-2-oxoethyl)-1-propylpiperidin-1-ium bromide] | significantly less cytotoxic than ropivacaine and bupivacaine | 19200 | 814 | 0 | 0 ± 0 | 3.6 ± 0.5 | 16.8 ± 4.0 | 31.3 ± 2.0 | 51.6 ± 2.2 | 0 | 0 ± 0 | 0 | 0 ± 0 | 2.3 ± 1.4 | 5.6 ± 1.8 | 14.6 ± 3.4 | 0 | 0 | 100 ± 60 | 200 ± 60 | inhibition at 300 µM (peak Nav1.5; HEK293, read-out: peak Nav1.5 current amplitude, percent reduction, 300 μM, individual cell (raw data)): 3.7%; inhibition at 1000 µM (peak Nav1.5): 11.2%; cytotoxicity compared with ropivacaine and bupivacaine (in words) (C2C12 Mouse myoblasts): significantly less cytotoxic than ropivacaine and bupivacaine; IC50 (C2C12 Mouse myoblasts): 14600 µM
2 | CCC[N@@+]1(CC(=O)OC)CCCC[C@H]1C(=O)Nc1c(C)cccc1C.[Br-] [Compound 4Sb, 2-((2,6-Dimethylphenyl)carbamoyl)-1-(2-methoxy-2-oxoethyl)-1-propylpiperidin-1-ium bromide] | significantly less cytotoxic than ropivacaine and bupivacaine |  |  | 0 | 0 ± 0 | 0 ± 0 | 1.5 ± 0.8 | 6.4 ± 1.1 | 18.3 ± 2.9 | 0 | 0 ± 0 | 0 | 0 ± 0 | 0 ± 0 | 4.2 ± 0.9 | 13.3 ± 2.9 | 0 | 0 | 0 | 90 ± 30 | IC50 (PC12 cells; unit inferred): 20100 µM; hERG current amplitude, percent reduction (hERG; human, 10 μM): 0%; peak Nav1.5 current amplitude, percent reduction (peak Nav1.5; 100 μM): 0%; inhibition at 100 µM (peak Nav1.5): 0%; inhibition at 1000 µM (peak Nav1.5): 13.8%; cytotoxicity compared with ropivacaine and bupivacaine (in words) (C2C12 Mouse myoblasts): significantly less cytotoxic than ropivacaine and bupivacaine; IC50 (C2C12 Mouse myoblasts; unit inferred): 19300 µM; Block Duration (min) Motor (sciatic nerve [1]; dose conc 15 mM): 0 min; Sensory:Motor Block Ratio (sciatic nerve [2]; dose conc 10 mM): ∞; Sensory:Motor Block Ratio (sciatic nerve [2]; dose conc 15 mM): ∞; Block Duration (min) Sensory (sciatic nerve [2]; dose conc 15 mM): 200 ± 30 min
3 | CCCCN1CCCCC1C(=O)Nc1c(C)cccc1C (stereo not drawn) [Bupivacaine, bupivacaine, reference compound] |  | 870 | 16.4 |  |  |  |  |  |  |  | 13.5 ± 3.1 |  | 49.0 ± 1.0 | 90.7 ± 1.5 |  |  |  | 50.8 | 140 ± 15 | 129 ± 21 | hERG current amplitude, percent reduction (hERG; 1 μM, individual cell (raw data)): 19.8% and 9.1% and 10.5%; hERG current amplitude, percent reduction, mean ± SE (hERG; 1 μM, mean ± SE): 13.1 ± 3.4%; hERG current amplitude, percent reduction (hERG; 10 μM, individual cell (raw data)): 43.0% and 45.0% and 42.1%; hERG current amplitude, percent reduction, mean ± SE (hERG; 10 μM, mean ± SE): 43.4 ± 0.9%; hERG current amplitude, percent reduction (hERG; 100 μM, individual cell (raw data)): 76.3% and 70.7% and 78.9%; hERG current amplitude, percent reduction, mean ± SE (hERG; 100 μM, mean ± SE): 75.3 ± 2.4%; IC50 (peak Nav1.5): 9.8 µM; inhibition at 100 µM (peak Nav1.5): 89.2%; IC50 (C2C12 Mouse myoblasts): 720 µM; Block Duration (min) Motor (sciatic nerve [1]; dose conc 15 mM): 222 ± 30 min; Block Duration (min) Sensory (sciatic nerve [2]; dose conc 15 mM): 215 ± 31 min
